How the values were obtained:
[1] = biological target: T1, α4β2α5D398 nAChR heterologously expressed in HEK293T cells (Mus musculus, UniProt O70174+Q9ERK7); experiment: Aequorin-based luminescence assay of agonist-evoked changes in intracellular calcium; format: cell-based
T1 construct: expressed in transfected cells; host or cells: HEK293T
Description: (§1) HEK293T cells were maintained at 37° C. in a humidified, 5% CO2 environment in Dulbecco's modified Eagle's medium (high glucose, no pyruvate) (DMEM), 10% heat-inactivated fetal bovine serum and antibiotic/antimycotic (100 U/mL penicillin, 100 μg/mL streptomycin and 0.25 μg/mL amphotericin B). Culture reagents were purchased from either Biowhittaker (East Rutherford, N.J., USA) or Invitrogen (Carlsbad, Calif., USA).
Agonist-evoked changes in intracellular calcium was performed using an aequorin-based luminescence assay as previously described (Karadsheh et al., 2004). […]
For the epibatidine concentration-response curves, 50 μL of cells were added to each well of a 96-well opaque white plate and placed in a Victor3V plate reader (Perkin Elmer). Following a 1 second baseline read, 50 μl epibatidine was injected onto each sample and luminescence was recorded at 0.2 s intervals for 20 s immediately following the addition of agonist. At the completion of the agonist stimulation, 100 μL of a solution containing 0.1% Triton X-100 and 100 mM CaCl2 was injected into each well and luminescence was recorded for 5 s at 0.1 s intervals. […]

[2] = test system: α4β2α5N398 nAChR heterologously expressed in HEK293T cells; experiment: cell-based; design: species or system mouse; settings: p<0.0005
Description: as §1
(§2) Agonist-evoked changes in intracellular calcium was performed using an aequorin-based luminescence assay as previously described (Karadsheh et al., 2004). HEK293T cells were seeded onto six-well plates (1.5×10^6 cells/well) and were transfected the following day with plasmids (0.25 μg/well for each plasmid) containing a human codon-optimized aequorin cDNA (Vernon and Printen 2002), the mouse α4 and β2 cDNAs and either the wild-type mouse α5 cDNA (D398) or a mouse α5 cDNA in which D398 was mutated to N398. Transfection was performed using either the LipofectAmine Plus Reagent (Invitrogen) or Fugene HD transfection reagent (Roche, Indianapolis, Ind.) as recommended by the manufacturers. […]
(§3) For the epibatidine concentration-response curves, 50 μL of cells were added to each well of a 96-well opaque white plate and placed in a Victor3V plate reader (Perkin Elmer). Following a 1 second baseline read, 50 μl epibatidine was injected onto each sample and luminescence was recorded at 0.2 s intervals for 20 s immediately following the addition of agonist. At the completion of the agonist stimulation, 100 μL of a solution containing 0.1% Triton X-100 and 100 mM CaCl2 was injected into each well and luminescence was recorded for 5 s at 0.1 s intervals. In order to control for differences in cell number per well as well as variation in transfection efficiency and coelenterazine loading, agonist responses were normalized by dividing the maximal peak value for the agonist-stimulated luminescence (L) by the total peak luminescence value (Lmax) (maximal peak agonist-stimulated luminescence+maximal peak luminescence resulting from cell lysis in the presence of high calcium).

[3] = biological target: T2, α4β2α5N398 nAChR heterologously expressed in HEK293T cells (Mus musculus, UniProt O70174+Q2MKA5+Q9ERK7, D397N); experiment: cell-based
T2 construct: expressed in transfected cells; host or cells: HEK293T
T2 sequence (Q2MKA5 30-467 D397N): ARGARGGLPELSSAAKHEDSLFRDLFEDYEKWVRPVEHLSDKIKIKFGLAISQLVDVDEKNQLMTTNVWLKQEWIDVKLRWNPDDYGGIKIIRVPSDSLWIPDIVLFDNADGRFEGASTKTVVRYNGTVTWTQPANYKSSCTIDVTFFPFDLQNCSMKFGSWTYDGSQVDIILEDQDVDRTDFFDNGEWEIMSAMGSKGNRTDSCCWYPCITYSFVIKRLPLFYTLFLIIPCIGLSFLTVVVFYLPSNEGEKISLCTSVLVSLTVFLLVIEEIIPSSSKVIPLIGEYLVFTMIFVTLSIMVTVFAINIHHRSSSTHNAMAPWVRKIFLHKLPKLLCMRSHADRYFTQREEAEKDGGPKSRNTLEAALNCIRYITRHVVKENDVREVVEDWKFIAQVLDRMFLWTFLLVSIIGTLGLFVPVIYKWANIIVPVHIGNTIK
T2 sequence (O70174 31-629): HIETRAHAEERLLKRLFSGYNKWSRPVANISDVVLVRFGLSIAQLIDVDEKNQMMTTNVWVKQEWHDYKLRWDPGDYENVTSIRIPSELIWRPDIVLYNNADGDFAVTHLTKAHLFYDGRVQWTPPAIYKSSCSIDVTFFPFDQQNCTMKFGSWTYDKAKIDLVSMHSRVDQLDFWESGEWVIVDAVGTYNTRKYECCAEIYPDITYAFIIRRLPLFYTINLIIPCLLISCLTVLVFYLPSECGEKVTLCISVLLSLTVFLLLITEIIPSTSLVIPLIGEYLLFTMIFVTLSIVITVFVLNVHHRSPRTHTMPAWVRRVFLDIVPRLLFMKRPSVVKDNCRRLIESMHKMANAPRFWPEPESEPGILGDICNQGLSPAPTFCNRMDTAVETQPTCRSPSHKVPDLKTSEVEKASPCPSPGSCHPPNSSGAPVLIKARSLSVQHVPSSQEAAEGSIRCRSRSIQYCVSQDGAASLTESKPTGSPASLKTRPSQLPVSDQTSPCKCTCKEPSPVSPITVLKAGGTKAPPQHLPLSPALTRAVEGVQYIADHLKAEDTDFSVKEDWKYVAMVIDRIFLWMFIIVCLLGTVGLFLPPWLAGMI
T2 sequence (Q9ERK7 26-501): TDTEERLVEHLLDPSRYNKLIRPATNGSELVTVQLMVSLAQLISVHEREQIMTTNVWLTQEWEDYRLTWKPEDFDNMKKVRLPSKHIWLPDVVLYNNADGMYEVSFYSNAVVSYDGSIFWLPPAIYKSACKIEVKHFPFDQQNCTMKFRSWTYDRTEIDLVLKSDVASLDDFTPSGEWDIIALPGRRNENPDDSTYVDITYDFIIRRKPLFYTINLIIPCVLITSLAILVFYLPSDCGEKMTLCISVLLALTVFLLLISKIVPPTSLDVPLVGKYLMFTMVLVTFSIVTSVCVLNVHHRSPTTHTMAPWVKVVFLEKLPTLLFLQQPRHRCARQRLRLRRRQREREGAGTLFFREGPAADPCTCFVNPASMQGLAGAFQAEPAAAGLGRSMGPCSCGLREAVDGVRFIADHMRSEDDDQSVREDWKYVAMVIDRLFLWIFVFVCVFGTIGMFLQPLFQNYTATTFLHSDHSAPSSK
Description: as §1, §2, §3

[4] = cigarette smoking, background statement; cited from earlier work

T1 sequence (Q2MKA5 30-467): as the sequence (Q2MKA5 30-467 D397N) above, with N368D counted along it
T1 sequence (Q9ERK7 26-501): as the sequence (Q9ERK7 26-501) above
T1 sequence (O70174 31-629): as the sequence (O70174 31-629) above

SMILES	EC50 [1] [nM]	maximal response to agonist per receptor ([1]; L/Lmax divided by fmol of nAChR per sample well, α4β2α5D398, mean ± SEM, N=12)	maximal response to agonist per receptor, α4β2α5N398 relative to α4β2α5D398 [2]	EC50 [3] [nM]	maximal response to agonist per receptor ([3]; L/Lmax divided by fmol of nAChR per sample well, α4β2α5N398, mean ± SEM, N=12)	time to peak drug level in brain after inhalation [4] [s]
Clc1ccc(C2CC3CCC2N3)cn1 (stereo not drawn) [epibatidine]	0.0259 ± 0.0015	0.147±0.01	over two-fold higher	0.0191 ± 0.0014	0.356±0.022	
CN1CCCC1c1cccnc1 (stereo not drawn) [nicotine]						≤ 10

Source: patent US8080371B2, “Markers for addiction” (The Washington University, priority 2006, dated 2011)
